Patent EP1984353B1, “AURORA KINASE MODULATORS AND METHOD OF USE” (Amgen, Inc, priority 2006, dated 2007)
Read-outs that look alike come from different tables or passages of the source.

Legend:
[1] = molecular target: T1, AuroraA-TPX2 (Homo sapiens, UniProt O14965); test: AuroraA-TPX2 Homogeneous Time Resolved Fluorescent (HTRF) kinase assay; type: biochemical; conditions: average, read-out: AurA/TP X2_ IC50_IP (Avg)
T1 construct: 20 µL of AuroraA-TPX2 KD GST; GST
T1 sequence (O14965 133-383 limits assumed): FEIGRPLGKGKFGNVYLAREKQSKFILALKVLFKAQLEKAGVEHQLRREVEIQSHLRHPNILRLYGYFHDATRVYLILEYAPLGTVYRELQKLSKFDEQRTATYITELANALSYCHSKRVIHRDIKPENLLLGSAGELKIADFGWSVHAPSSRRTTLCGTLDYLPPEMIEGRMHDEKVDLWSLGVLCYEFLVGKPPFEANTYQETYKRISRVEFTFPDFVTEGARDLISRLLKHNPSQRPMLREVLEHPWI
T1 sequence (Q9ULW0 1-43 partner limits assumed): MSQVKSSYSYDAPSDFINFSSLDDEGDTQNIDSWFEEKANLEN
How it was run: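 HTRF read-out: europium anti-phosphoPLK antibody (0.02 nM) plus streptavidin-APC detect phosphorylated biotin-PLK after EDTA stop and overnight equilibration. Kinase step runs about 120 min with Aurora-A/TPX2, ATP and roughly 1 µM PLK peptide at pH 7.5 HEPES buffer with Mg2+ and DTT.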

[2] = molecular target: T2, AuroraB (Homo sapiens, UniProt Q96GD4); test: AuroraB Homogeneous Time Resolved Fluorescent (HTRF) kinase assay; type: biochemical; conditions: average, read-out: AurB_ _IC50_IP (Avg)
T2 construct: 20 µL of AuroraB FL His; His
How it was run: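 HTRF read-out: after EDTA stop and ~60 min with europium anti-phospho-H3 antibody and streptavidin-APC, 655/615 nm ratio reports phosphorylation. Reaction: 400 pM AuroraB FL His, 23 µM ATP (at Km(app)), 0.1 µM biotin-Histone H3 peptide, 50 mM HEPES pH 7.5, MgCl/MnCl, ~90 min.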

[3] = given as numbers, unit inferred

T2 sequence (Q96GD4 whole entry): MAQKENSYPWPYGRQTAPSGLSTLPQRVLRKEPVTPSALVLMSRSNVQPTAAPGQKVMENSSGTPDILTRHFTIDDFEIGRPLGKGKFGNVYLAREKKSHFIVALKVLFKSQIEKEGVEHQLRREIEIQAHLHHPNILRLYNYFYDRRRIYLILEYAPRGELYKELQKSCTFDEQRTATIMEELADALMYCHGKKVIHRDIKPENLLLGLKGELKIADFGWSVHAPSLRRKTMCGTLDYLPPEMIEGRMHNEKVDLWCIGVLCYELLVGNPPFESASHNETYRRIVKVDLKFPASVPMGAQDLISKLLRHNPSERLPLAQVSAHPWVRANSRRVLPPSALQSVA

SMILES | IC50 ([1]; given as class symbols) [nM] | IC50 ([2]; given as class symbols) [nM] | IC50 [1, 3] [nM] | IC50 [2, 3] [nM]
Nc1cc(-c2cccnc2Oc2ccc(Nc3nnc(-c4ccccc4O)c4ccccc34)cc2)ccn1 [compound 371, 2-(4-((4-((2'-amino-3,4'-bipyridin-2-yl)oxy)phenyl)amino)-1-phthalazinyl)phenol] | 100 to 500 | ≤ 100 | – | –
COc1ccc(F)c(-c2nnc(Nc3ccc(Oc4ncccc4-c4ccnc(N)n4)cc3)c3ccccc23)c1 [compound 372, N-(4-((3-(2-amino-4-pyrimidinyl)-2-pyridinyl)oxy)phenyl)-4-(2-fluoro-5-(methyloxy)phenyl)-1-phthalazinamine] | ≤ 100 | ≤ 100 | – | –
Nc1nccc(-c2cccnc2Oc2ccc(Nc3nnc(-c4cc(O)ccc4F)c4ccccc34)cc2)n1 [compound 373, 3-(4-((4-((3-(2-amino-4-pyrimidinyl)-2-pyridinyl)oxy)phenyl)amino)-1-phthalazinyl)-4-fluorophenol] | ≤ 100 | ≤ 100 | – | –
CN(C)CCCOc1cccc(-c2nnc(Nc3ccc(Oc4ncccc4-c4ccnc(N)n4)cc3)c3ccccc23)c1 [compound 374, N-(4-((3-(2-amino-4-pyrimidinyl)-2-pyridinyl)oxy)phenyl)-4-(3-((3-(dimethylamino)propyl)oxy)phenyl)-1-phthalazinamine] | ≤ 100 | ≤ 100 | – | –
Nc1nccc(-c2cccnc2Oc2ccc(Nc3nnc(-c4cccc(CO)c4)c4ccccc34)cn2)n1 [compound 375, (3-(4-((6-((3-(2-amino-4-pyrimidinyl)-2-pyridinyl)oxy)-3-pyridinyl)amino)-1-phthalazinyl)phenyl)methanol] | ≤ 100 | ≤ 100 | – | –
COc1ccc(F)c(-c2nnc(Nc3ccc(Oc4ncccc4-c4ccnc(N)n4)nc3)c3ccccc23)c1 [compound 376, N-(6-((3-(2-amino-4-pyrimidinyl)-2-pyridinyl)oxy)-3-pyridinyl)-4-(2-fluoro-5-(methyloxy)phenyl)-1-phthalazinamine] | ≤ 100 | ≤ 100 | – | –
Nc1nccc(-c2cccnc2Oc2ccc(Nc3nnc(-c4cccc(OC(F)(F)F)c4)c4ccccc34)cc2)n1 [compound 377, N-(4-((3-(2-amino-4-pyrimidinyl)-2-pyridinyl)oxy)phenyl)-4-(3-((trifluoromethyl)oxy)phenyl)-1-phthalazinamine] | ≤ 100 | ≤ 100 | – | –
Nc1nccc(-c2cccnc2Oc2ccc(Nc3nnc(-c4cccc(OC(F)(F)F)c4)c4ccccc34)cn2)n1 [compound 378, N-(6-((3-(2-amino-4-pyrimidinyl)-2-pyridinyl)oxy)-3-pyridinyl)-4-(3-((trifluoromethyl)oxy)phenyl)-1-phthalazinamine] | ≤ 100 | ≤ 100 | – | –
Nc1nccc(-c2cccnc2Oc2ccc(Nc3nnc(-c4cc(O)ccc4F)c4ccccc34)cn2)n1 [compound 379, 3-(4-((6-((3-(2-amino-4-pyrimidinyl)-2-pyridinyl)oxy)-3-pyridinyl)amino)-1-phthalazinyl)-4-fluorophenol] | ≤ 100 | ≤ 100 | – | –
COc1ccc(F)cc1-c1nnc(Nc2ccc(Oc3ncccc3-c3ccnc(N)n3)cc2)c2ccccc12 [compound 380, N-(4-((3-(2-amino-4-pyrimidinyl)-2-pyridinyl)oxy)phenyl)-4-(5-fluoro-2-(methyloxy)phenyl)-1-phthalazinamine] | ≤ 100 | ≤ 100 | – | –
COc1ccc(F)cc1-c1nnc(Nc2ccc(Oc3ncccc3-c3ccnc(N)n3)nc2)c2ccccc12 [compound 381, N-(6-((3-(2-amino-4-pyrimidinyl)-2-pyridinyl)oxy)-3-pyridinyl)-4-(5-fluoro-2-(methyloxy)phenyl)-1-phthalazinamine] | 100 to 500 | ≤ 100 | – | –
Nc1nccc(-c2cccnc2Oc2ccc(Nc3nnc(-c4ccccc4OC(F)(F)F)c4ccccc34)cc2)n1 [compound 382, N-(4-((3-(2-amino-4-pyrimidinyl)-2-pyridinyl)oxy)phenyl)-4-(2-((trifluoromethyl)oxy)phenyl)-1-phthalazinamine] | 100 to 500 | ≤ 100 | – | –
Nc1nccc(-c2cccnc2Oc2ccc(Nc3nnc(-c4ccccc4OC(F)(F)F)c4ccccc34)cn2)n1 [compound 383, N-(6-((3-(2-amino-4-pyrimidinyl)-2-pyridinyl)oxy)-3-pyridinyl)-4-(2-((trifluoromethyl)oxy)phenyl)-1-phthalazinamine] | 500 to 2500 | ≤ 100 | – | –
Nc1nccc(-c2cccnc2Oc2ccc(Nc3nnc(-c4ccccc4CO)c4ccccc34)cc2)n1 [compound 384, (2-(4-((4-((3-(2-amino-4-pyrimidinyl)-2-pyridinyl)oxy)phenyl)amino)-1-phthalazinyl)phenyl)methanol] | ≤ 100 | ≤ 100 | – | –
Nc1nccc(-c2cccnc2Oc2ccc(Nc3nnc(-c4ccccc4CO)c4ccccc34)cn2)n1 [compound 385, (2-(4-((6-((3-(2-amino-4-pyrimidinyl)-2-pyridinyl)oxy)-3-pyridinyl)amino)-1-phthalazinyl)phenyl)methanol] | 100 to 500 | ≤ 100 | – | –
Nc1nccc(-c2cccnc2Oc2ccc(Nc3nnc(-c4cc(F)ccc4O)c4ccccc34)cc2)n1 [compound 386, 2-(4-((4-((3-(2-amino-4-pyrimidinyl)-2-pyridinyl)oxy)phenyl)amino)-1-phthalazinyl)-4-fluorophenol] | ≤ 100 | ≤ 100 | – | –
Nc1nccc(-c2cccnc2Oc2ccc(Nc3nnc(-c4cc(F)ccc4O)c4ccccc34)cn2)n1 [compound 387, 2-(4-((6-((3-(2-amino-4-pyrimidinyl)-2-pyridinyl)oxy)-3-pyridinyl)amino)-1-phthalazinyl)-4-fluorophenol] | ≤ 100 | ≤ 100 | – | –
CN(C)CCCOc1cccc(-c2nnc(Nc3ccc(Oc4ncccc4-c4ccnc(N)n4)nc3)c3ccccc23)c1 [compound 388, N-(6-((3-(2-amino-4-pyrimidinyl)-2-pyridinyl)oxy)-3-pyridinyl)4-(3-((3-(dimethylamino)propyl)oxy)phenyl)-1-phthalazinamine] | 100 to 500 | ≤ 100 | – | –
CN1CCN(CCCNc2nccc(-c3cccnc3Oc3ccc(Nc4nnc(-c5ccccc5)c5ccccc45)cn3)n2)CC1 [compound 389, N-(6-((3-(2-((3-(4-methyl-1-piperazinyl)propyl)amino)-4-pyrimidinyl)-2-pyridinyl)oxy)-3-pyridinyl)-4-phenyl-1-phthalazinamine] | ≤ 100 | ≤ 100 | – | –
c1ccc(-c2nnc(Nc3ccc(Oc4ncccc4-c4ccnc(NCCCN5CCNCC5)n4)nc3)c3ccccc23)cc1 [compound 390, 4-phenyl-N-(6-((3-(2-((3-(1-piperazinyl)propyl)amino)-4-pyrimidinyl)-2-pyridinyl)oxy)-3-pyridinyl)-1-phthalazinamine] | ≤ 100 | ≤ 100 | – | –
Nc1nccc(-c2cccnc2Oc2ccc(Nc3nnc(-c4ccccc4OP(=O)(O)O)c4ccccc34)cn2)n1 [compound 391, 2-(4-((6-((3-(2-amino-4-pyrimidinyl)-2-pyridinyl)oxy)-3-pyridinyl)amino)-1-phthalazinyl)phenyl dihydrogen phosphate] | – | – | 1600 | 641
Nc1nccc(-c2cccnc2Oc2ccc(Nc3nnc(-c4cccc(OP(=O)(O)O)c4)c4ccccc34)cn2)n1 [compound 392, 3-(4-((6-((3-(2-amino-4-pyrimidinyl)-2-pyridinyl)oxy)-3-pyridinyl)amino)-1-phthalazinyl)phenyl dihydrogen phosphate] | 500 to 2500 | 500 to 2500 | – | –
